# Measurements from ChEMBL document CHEMBL1177702, “Design of selective, ATP-competitive inhibitors of Akt” (J Med Chem, 2010).
# Assays:
# [1] = test system: Mus musculus; experiment: fAUC in SCID/Beige mouse xenografted with human PC3 cells at 100 mg/kg, po BID for 10 days; format: ADME, organism-based, PC-3; design: dose 100 mg/kg, route oral; conditions: in vivo, 240 h
# [2] = Blood clearance in dog at 1.2 mg/kg, iv; format: ADME, organism-based, Canis lupus familiaris; design: dose 1.2 mg/kg, route intravenous; conditions: whole blood
# [3] = AUClast in jugular/portal vein catheterized rat at 5 mg/kg, po; format: ADME, organism-based; design: time 0 - last, dose 5 mg/kg, route oral; conditions: plasma
# [4] = Cmax in SCID/Beige mouse xenografted with human PC3 cells at 75 mg/kg, po BID for 10 days; format: ADME, organism-based, PC-3; design: dose 75 mg/kg, route oral; conditions: in vivo
# [5] = Inhibition of recombinant PKA at 1 uM after 90 mins by IMAP assay
# [6] = Fraction unbound in rat plasma at 1 uM; format: ADME, cell-free
# [7] = test system: Mus musculus; experiment: Inhibition of AKT1/p70S6K1 in SCID/Beige mouse xenografted with human PC3 cells assessed as reduction of phosphorylated S6 level at 75 mg/kg, po administered as single dose measured 2 to 4 hrs by immunoblot analysis; format: functional; conditions: PC-3
# [8] = test system: Mus musculus; experiment: fCmax in SCID/Beige mouse xenografted with human PC3 cells at 25 mg/kg, po BID for 10 days; format: ADME, organism-based, PC-3; design: dose 25 mg/kg, route oral; conditions: in vivo, 240 h
# [9] = test system: Mus musculus; experiment: Free plasma concentration in SCID/Beige mouse xenografted with human PC3 cells at 75 mg/kg, po BID for 10 days; format: ADME, organism-based, PC-3; design: dose 75 mg/kg, route oral; conditions: in vivo, 240 h
# [10] = test system: COLO 205; experiment: Antitumor activity against human COLO205 cells xenografted in SCID/Beige mouse assessed as tumor growth inhibition at 150 mg/kg, po BID for 10 days measured after 10 days; format: functional; conditions: COLO 205, 240 h, read-out: TGI
# [11] = AUC (0 to infinity) in dog at 1.2 mg/kg, iv; format: ADME, organism-based, Canis lupus familiaris; design: time infinity, dose 1.2 mg/kg, route intravenous; conditions: plasma
# [12] = Cmax in dog at 1.2 mg/kg, iv; format: ADME, organism-based, Canis lupus familiaris; design: dose 1.2 mg/kg, route intravenous; conditions: in vivo
# [13] = Tmax in jugular/portal vein catheterized rat at 5 mg/kg, po; format: ADME, organism-based; design: dose 5 mg/kg, route oral; conditions: in vivo
# [14] = AUC in SCID/Beige mouse xenografted with human PC3 cells at 100 mg/kg, po BID for 10 days; format: ADME, organism-based, PC-3; design: dose 100 mg/kg, route oral; conditions: in vivo
# [15] = test system: Mus musculus; experiment: Inhibition of AKT1/p70S6K1 in SCID/Beige mouse xenografted with human PC3 cells assessed as loss of feedback loop-associated increase in AKT hyperphosphorylation at 25 mg/kg, po administered as single dose measured 1 hr by immunoblot analysis; format: functional, PC-3; design: scale not given: the % may be the effect or the level left
# [16] = Fraction unbound in dog plasma at 1 uM; format: ADME, cell-free, Canis lupus familiaris
# [17] = test system: Mus musculus; experiment: Inhibition of AKT1/p70S6K1 in SCID/Beige mouse xenografted with human PC3 cells assessed as average inhibition of S6 phosphorylation at 75 mg/kg, po administered as single dose measured up to 24 hrs by immunoblot analysis; format: functional; conditions: PC-3, 24 h
# [18] = AUC (0 to infinity) in rat at 2 mg/kg, iv; format: ADME, organism-based; design: time infinity, dose 2 mg/kg, route intravenous; conditions: plasma
# [19] = test system: PC-3; experiment: Antitumor activity against human PC3 cells xenografted in SCID/Beige mouse assessed as tumor growth inhibition at 75 mg/kg, po BID for 10 days; format: functional; conditions: PC-3, 240 h, read-out: TGI
# [20] = target: cGMP-dependent protein kinase 1 (Homo sapiens) (UniProt Q13976); experiment: Inhibition of PKG1alpha at 1 uM
# [21] = Volume of distribution at steady state in rat at 2 mg/kg, iv; format: ADME, organism-based; design: dose 2 mg/kg, route intravenous; conditions: in vivo, read-out: Vdss
# [22] = test system: Mus musculus; experiment: Inhibition of AKT1/p70S6K1 in SCID/Beige mouse xenografted with human PC3 cells assessed as area under the inhibitory curve of reduced phosphorylated S6 level at 100 mg/kg, po administered as single dose measured up to 24 hrs; format: functional, PC-3
# [23] = test system: Mus musculus; experiment: fCmax in SCID/Beige mouse xenografted with human PC3 cells at 75 mg/kg, po BID for 10 days; format: ADME, organism-based, PC-3; design: dose 75 mg/kg, route oral; conditions: in vivo, 240 h
# [24] = Cmax in dog at 2 mg/kg, po; format: ADME, organism-based, Canis lupus familiaris; design: dose 2 mg/kg, route oral; conditions: in vivo
# [25] = Fraction unbound in rat liver microsomes at 1 uM; format: ADME, Microsome
# [26] = test system: Mus musculus; experiment: Inhibition of AKT1/p70S6K1 in SCID/Beige mouse xenografted with human PC3 cells assessed as average increase in AKT phosphorylation related to loss of feedback loop at 25 mg/kg, po administered as single dose measured up to 24 hrs by immunoblot analysis; format: functional, PC-3; design: scale not given: the % may be the effect or the level left
# [27] = target: Ribosomal protein S6 kinase alpha-5 (Homo sapiens) (UniProt O75582); experiment: Inhibition of MSK1 at 1 uM
# [28] = target: Ribosomal protein S6 kinase alpha-2 (Homo sapiens) (UniProt Q15349); experiment: Inhibition of RSK3 at 1 uM
# [29] = test system: Mus musculus; experiment: Inhibition of AKT1/p70S6K1 in SCID/Beige mouse xenografted with human PC3 cells assessed as area under the inhibitory curve of reduced phosphorylated S6 level at 75 mg/kg, po administered as single dose measured up to 24 hrs; format: functional, PC-3
# [30] = Cmax in jugular/portal vein catheterized rat at 5 mg/kg, po; format: ADME, organism-based; design: dose 5 mg/kg, route oral; conditions: in vivo
# [31] = Fraction unbound in human liver microsomes at 1 uM; format: ADME, Microsome
# [32] = test system: Mus musculus; experiment: Free plasma concentration in SCID/Beige mouse xenografted with human PC3 cells at 25 mg/kg, po BID for 10 days; format: ADME, organism-based, PC-3; design: dose 25 mg/kg, route oral; conditions: in vivo, 240 h
# [33] = Oral bioavailability in dog at 2 mg/kg; format: ADME, organism-based, Canis lupus familiaris; conditions: in vivo
# [34] = test system: Mus musculus; experiment: Inhibition of AKT1/p70S6K1 in SCID/Beige mouse xenografted with human PC3 cells assessed as reduction of phosphorylated S6 level at 25 mg/kg, po administered as single dose measured 2 to 4 hrs by immunoblot analysis; format: functional; conditions: PC-3
# [35] = target: Ribosomal protein S6 kinase alpha-4 (Homo sapiens) (UniProt O75676); experiment: Inhibition of MSK2 at 1 uM
# [36] = Volume of distribution at steady state in dog at 1.2 mg/kg, iv; format: ADME, organism-based, Canis lupus familiaris; design: dose 1.2 mg/kg, route intravenous; conditions: in vivo, read-out: Vdss
# [37] = AUClast in dog at 2 mg/kg, po; format: ADME, organism-based, Canis lupus familiaris; design: time 0 - last, dose 2 mg/kg, route oral; conditions: plasma
# [38] = test system: Mus musculus; experiment: Inhibition of AKT1/p70S6K1 in SCID/Beige mouse xenografted with human PC3 cells assessed as loss of feedback loop-associated increase in AKT hyperphosphorylation at 75 mg/kg, po administered as single dose measured 1 hr by immunoblot analysis; format: functional, PC-3; design: scale not given: the % may be the effect or the level left
# [39] = Plasma concentration in SCID/Beige mouse xenografted with human PC3 cells at 100 mg/kg, po BID for 10 days; format: ADME, organism-based, PC-3; design: dose 100 mg/kg, route oral
# [40] = Half life in dog at 1.2 mg/kg, iv; format: ADME, organism-based, Canis lupus familiaris; design: dose 1.2 mg/kg, route intravenous; conditions: in vivo
# [41] = test system: Mus musculus; experiment: Inhibition of AKT1/p70S6K1 in SCID/Beige mouse xenografted with human PC3 cells assessed as average increase in AKT phosphorylation related to loss of feedback loop at 100 mg/kg, po administered as single dose measured up to 24 hrs by immunoblot analysis; format: functional, PC-3; design: scale not given: the % may be the effect or the level left
# [42] = test system: Mus musculus; experiment: Inhibition of AKT1/p70S6K1 in SCID/Beige mouse xenografted with human PC3 cells assessed as loss of feedback loop-associated increase in AKT hyperphosphorylation at 100 mg/kg, po administered as single dose measured 1 hr by immunoblot analysis; format: functional, PC-3; design: scale not given: the % may be the effect or the level left
# [43] = Cmax in rat at 2 mg/kg, iv; format: ADME, organism-based; design: dose 2 mg/kg, route intravenous; conditions: in vivo
# [44] = target: Cyclin-dependent kinase 7 (Homo sapiens) (UniProt P50613); experiment: Inhibition of CDK7 at 1 uM
# [45] = Fraction unbound in rat plasma at 10 uM; format: ADME, cell-free
# [46] = Fraction unbound in mouse plasma at 1 uM; format: ADME, cell-free
# Ribosomal protein S6 kinase alpha-4 (Homo sapiens), sequence (O75676 whole entry, looked up): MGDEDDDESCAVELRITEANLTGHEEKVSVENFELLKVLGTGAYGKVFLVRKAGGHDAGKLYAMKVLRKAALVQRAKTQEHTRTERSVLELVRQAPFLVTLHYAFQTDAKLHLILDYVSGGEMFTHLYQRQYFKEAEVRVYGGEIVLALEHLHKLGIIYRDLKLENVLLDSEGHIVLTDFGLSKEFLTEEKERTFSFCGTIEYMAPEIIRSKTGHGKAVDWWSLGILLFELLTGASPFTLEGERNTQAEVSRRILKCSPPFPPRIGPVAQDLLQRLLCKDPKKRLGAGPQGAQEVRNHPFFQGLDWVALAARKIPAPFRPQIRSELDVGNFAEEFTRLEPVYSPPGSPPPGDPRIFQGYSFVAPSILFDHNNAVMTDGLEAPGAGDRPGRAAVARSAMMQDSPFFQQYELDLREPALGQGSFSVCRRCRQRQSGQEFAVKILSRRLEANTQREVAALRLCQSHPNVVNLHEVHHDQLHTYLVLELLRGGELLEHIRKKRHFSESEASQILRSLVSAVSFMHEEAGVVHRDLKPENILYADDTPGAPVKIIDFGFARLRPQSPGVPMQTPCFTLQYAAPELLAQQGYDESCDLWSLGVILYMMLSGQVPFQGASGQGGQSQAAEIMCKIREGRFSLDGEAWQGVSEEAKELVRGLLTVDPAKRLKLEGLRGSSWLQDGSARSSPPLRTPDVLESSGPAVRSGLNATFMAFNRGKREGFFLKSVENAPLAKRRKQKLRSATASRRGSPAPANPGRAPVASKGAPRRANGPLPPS
# Ribosomal protein S6 kinase alpha-2 (Homo sapiens), sequence (Q15349 whole entry): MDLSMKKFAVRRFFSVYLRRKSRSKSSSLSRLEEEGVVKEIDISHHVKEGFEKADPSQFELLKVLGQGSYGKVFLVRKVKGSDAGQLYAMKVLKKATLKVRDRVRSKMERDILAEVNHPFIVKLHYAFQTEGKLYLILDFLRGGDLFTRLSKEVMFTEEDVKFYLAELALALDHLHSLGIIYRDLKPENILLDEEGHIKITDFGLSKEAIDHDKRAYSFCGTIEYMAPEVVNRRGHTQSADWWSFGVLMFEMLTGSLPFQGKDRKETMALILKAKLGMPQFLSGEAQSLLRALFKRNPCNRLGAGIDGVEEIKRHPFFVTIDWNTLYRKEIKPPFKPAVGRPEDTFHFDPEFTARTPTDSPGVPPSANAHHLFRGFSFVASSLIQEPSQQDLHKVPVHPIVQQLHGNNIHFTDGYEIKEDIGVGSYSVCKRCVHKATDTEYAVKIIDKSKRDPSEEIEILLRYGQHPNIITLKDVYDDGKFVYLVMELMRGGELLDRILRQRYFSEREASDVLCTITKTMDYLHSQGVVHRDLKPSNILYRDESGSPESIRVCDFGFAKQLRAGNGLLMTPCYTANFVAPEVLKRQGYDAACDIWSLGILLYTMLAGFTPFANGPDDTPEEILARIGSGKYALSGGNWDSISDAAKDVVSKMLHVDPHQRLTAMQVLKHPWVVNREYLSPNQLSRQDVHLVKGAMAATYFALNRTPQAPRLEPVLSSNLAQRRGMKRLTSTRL
# Ribosomal protein S6 kinase alpha-5 (Homo sapiens), sequence (O75582 whole entry, looked up): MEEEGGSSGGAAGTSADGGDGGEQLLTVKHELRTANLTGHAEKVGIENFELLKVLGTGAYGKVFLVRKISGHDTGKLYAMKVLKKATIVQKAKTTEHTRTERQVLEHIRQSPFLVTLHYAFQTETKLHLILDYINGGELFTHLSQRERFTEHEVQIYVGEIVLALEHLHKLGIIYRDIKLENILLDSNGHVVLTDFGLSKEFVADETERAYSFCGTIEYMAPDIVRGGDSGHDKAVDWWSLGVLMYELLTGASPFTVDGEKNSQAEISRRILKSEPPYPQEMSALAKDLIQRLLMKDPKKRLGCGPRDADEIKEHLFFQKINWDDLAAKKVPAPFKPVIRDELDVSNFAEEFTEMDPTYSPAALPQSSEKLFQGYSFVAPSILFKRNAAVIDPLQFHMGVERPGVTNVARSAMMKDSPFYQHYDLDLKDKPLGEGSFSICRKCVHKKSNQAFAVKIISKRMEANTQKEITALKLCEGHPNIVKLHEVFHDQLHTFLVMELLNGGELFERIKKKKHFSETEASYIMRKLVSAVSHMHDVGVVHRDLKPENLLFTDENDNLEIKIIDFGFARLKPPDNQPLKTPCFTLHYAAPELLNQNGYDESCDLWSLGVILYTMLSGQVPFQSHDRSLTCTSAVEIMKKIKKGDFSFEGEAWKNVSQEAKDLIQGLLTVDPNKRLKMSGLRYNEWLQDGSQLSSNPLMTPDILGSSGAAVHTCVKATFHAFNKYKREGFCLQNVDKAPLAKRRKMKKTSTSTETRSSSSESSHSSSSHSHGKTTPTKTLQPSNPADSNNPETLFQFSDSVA
# cGMP-dependent protein kinase 1 (Homo sapiens), sequence (Q13976 whole entry): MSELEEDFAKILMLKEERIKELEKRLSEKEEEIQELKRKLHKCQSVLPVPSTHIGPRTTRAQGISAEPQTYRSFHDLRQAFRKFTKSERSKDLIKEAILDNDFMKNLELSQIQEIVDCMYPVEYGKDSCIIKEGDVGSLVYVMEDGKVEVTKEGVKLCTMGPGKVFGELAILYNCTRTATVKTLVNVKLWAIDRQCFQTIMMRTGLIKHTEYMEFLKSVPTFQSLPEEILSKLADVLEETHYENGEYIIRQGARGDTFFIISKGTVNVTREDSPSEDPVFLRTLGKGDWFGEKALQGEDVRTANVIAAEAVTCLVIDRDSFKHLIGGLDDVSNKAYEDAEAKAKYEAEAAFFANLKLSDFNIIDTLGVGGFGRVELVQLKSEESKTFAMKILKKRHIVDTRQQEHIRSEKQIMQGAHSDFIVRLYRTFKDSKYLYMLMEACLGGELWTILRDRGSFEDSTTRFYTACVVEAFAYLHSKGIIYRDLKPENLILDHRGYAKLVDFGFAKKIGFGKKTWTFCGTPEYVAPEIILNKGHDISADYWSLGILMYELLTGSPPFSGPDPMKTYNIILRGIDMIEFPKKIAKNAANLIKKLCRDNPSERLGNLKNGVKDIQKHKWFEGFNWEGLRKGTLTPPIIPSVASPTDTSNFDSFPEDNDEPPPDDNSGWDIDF
# Cyclin-dependent kinase 7 (Homo sapiens), sequence (P50613 whole entry): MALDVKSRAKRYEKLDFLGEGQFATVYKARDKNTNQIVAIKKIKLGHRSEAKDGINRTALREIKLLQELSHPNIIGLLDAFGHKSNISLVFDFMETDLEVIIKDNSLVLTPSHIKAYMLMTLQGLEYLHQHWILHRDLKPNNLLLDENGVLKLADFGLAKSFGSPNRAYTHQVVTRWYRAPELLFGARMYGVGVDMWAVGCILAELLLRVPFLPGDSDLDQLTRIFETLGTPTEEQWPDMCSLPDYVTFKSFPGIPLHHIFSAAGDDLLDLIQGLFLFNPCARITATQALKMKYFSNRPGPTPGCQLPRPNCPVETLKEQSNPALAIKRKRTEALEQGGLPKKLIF
smiles,measurement,setting,value
CCc1c[nH]c2ncnc(N3CC[C@](N)(CNC(=O)c4ccc(F)cc4F)C3)c12,fAUC,[1],3167 ng·h/mL
same,clearance,[2],11.6 mL/min/kg
same,AUC(0-t),[3],1180 ng·h/mL
same,Cmax,[4],2000 ng/mL
same,inhibition,[5],> 50%
same,fraction unbound at 1 µM,[6],0.33
same,inhibition in vivo at 75 mg/kg,[7],75%
same,fCmax,[8],106 ng/mL
same,Cp(f),[9],177 nM
same,inhibition in vivo at 150 mg/kg,[10],60%
same,AUC(0-inf),[11],1440 ng·h/mL
same,Cmax,[12],602 ng/mL
same,Tmax,[13],0.33 h
same,AUC at 240 h,[14],10700 ng·h/mL
same,Activity,[15],302%
same,fraction unbound at 1 µM,[16],0.324
same,inhibition in vivo at 75 mg/kg,[17],34%
same,AUC(0-inf),[18],369 ng·h/mL
same,inhibition in vivo at 75 mg/kg,[19],56%
same,inhibition,[20],> 50%
same,Vd,[21],5.73 L/kg
same,AUIC,[22],1152 %.hr
same,fCmax,[23],591 ng/mL
same,Cmax,[24],267 ng/mL
same,fraction unbound at 1 µM,[25],0.667
same,Activity,[26],181%
same,inhibition,[27],> 50%
same,inhibition,[28],> 50%
same,AUIC,[29],822 %.hr
same,Cmax,[30],689 ng/mL
same,fraction unbound at 1 µM,[31],0.805
same,Cp(f),[32],13 nM
same,bioavailability,[33],54%
same,inhibition in vivo at 25 mg/kg,[34],35%
same,inhibition,[35],> 50%
same,Vd,[36],4.8 L/kg
same,AUC(0-t),[37],1280 ng·h/mL
same,Activity,[38],408%
same,concentration at 240 h,[39],1110 nM
same,half-life,[40],4.41 h
same,Activity,[41],284%
same,Activity,[42],>425%
same,Cmax,[43],1080 ng/mL
same,inhibition,[44],> 50%
same,fraction unbound at 10 µM,[45],0.305
same,fraction unbound at 1 µM,[46],0.296
